# Data: patent US20250213560A1, “NITROGEN-CONTAINING HETEROCYCLIC COMPOUNDS HAVING PHENYL GROUP AND USES THEREOF” (BNH RESEARCH CO., LTD., priority 2022, published 2025)
# How the values were obtained:
# 293T cells = assay: Cytotoxicity test (CCK-8 cell viability) in 293T cells; format: cell-based, human; conditions: 293T cell line
# Experimental: Human undifferentiated neuroblastoma cell line SH-SY5Y and human embryonic kidney cell line (HEK)-293T were purchased from Korean Cell Line Bank (Korea) and Takara (Japan), respectively. Cells were grown in HyClone Minimal Essential Medium (MEM) and Dulbecco's Modified Eagle Medium (DMEM), respectively, supplemented with 10% (v/v) fetal bovine serum (FBS), penicillin (100 U/mL), and streptomycin ([…]). Cells were maintained in a humidified atmosphere of 95% air and 5% CO2 at 37° C. Cells were passaged 10 times at maximum. Cells were dissociated using 0.05% trypsin-EDTA solution and the cells were seeded in new culture dishes for maintenance.
# To examine the cytotoxicity of compounds described herein in human cell lines, SH-SY5Y and 293T cells were used. Approximately 8,000 cells (for 293T) and 15,000 cells (for SH-SY5Y) were plated per well of a 96-well plate (SPL Life Sciences Co., Ltd., Pocheon, Korea). After incubating at 37° C. for 24 hours in a humidified atmosphere containing 5% CO2, the culture medium was replaced by a series of concentrations of test compounds diluted in the corresponding culture medium.
# The time of co-incubation was 24 hours and six replicates were made for each measurement. Finally, 10 μL of CCK-8 reagent (Dojindo Laboratories, Rockville, MD) was added to each well, and after incubation at 37° C. for 3 minutes, the OD at 450 nm was measured using a multifunction microplate reader (Tecan Infinite M200 Pro). These measurements were compared to that of a control and expressed as a percentage of the control to calculate cell viability. The IC50 value was calculated using SPSS software. To do this, the absorbance of the blank wells with only growth medium is subtracted from the values or the wells with cells. The readout value of background (vehicle) was set as a 100% viability, and then the percent viability for each test solution was calculated.
# The data was presented as the mean value and standard error of the mean (S.E.M.). Statistical analysis was performed with the one-way ANOVA with Tukey's post hoc test (GraphPad Prism 5 software package, version 5.02, GraphPad Software Inc. USA). Significance was accepted at p<0.05.
# The cytotoxicity of the compound was evaluated by treating cells with BnH12003 and measuring cell viability.
# By treating cells with various BnH12 series compounds and measuring cell viability using the experimental procedure described in Example 2, the cytotoxicity of the compounds was evaluated.
# GluN2B = GluN2B protein expression by Western blot in primary cortical neuron cells; format: cell-based, mouse; conditions: for Western blot results Mean (GluN2B expression): relative value, vehicle set to 1, primary cortical neurons treated for 24 hours; for GluN2B expression effect (in words): compared to vehicle / other compounds, Table 5
# Experimental: Meanwhile, primary cortical neuron cells were isolated from cerebral cortices of 18-day-old mouse fetuses, incubated in prep media (composition (mM): NaCl 107.5, NaH2PO4 1, NaHCO333.5, glucose 11, HEPS 1%, penicillin-streptomycin 1%) containing 0.25% trypsin and DNasel for 30 minutes, dissociated into single cells, and seeded. Primary cortical neuron cells were grown in Neurobasal medium supplemented with 1% (v/v) B27, 1% penicillin (100 U/mL), streptomycin ([…]), and 1% Glutamax. Cells were maintained in a humidified atmosphere of 95% air and 5% CO2 at 37° C. Drug efficacy was evaluated after culturing primary cortical neuron cells for 14 days.
# The amount of GluN2B reacted with the compound of the present disclosure was measured using Western blot. The fetal cerebral cortex was extracted from mice at 17 days of gestation, dissociated into single cells, cultured for 13 days, and treated with BnH drugs for 24 hours. The drug-treated cells were subjected to protein lysate preparation using RIPA protein lysis buffer containing protease and phosphatase inhibitors. The protein concentration was determined using a BCA protein assay kit (Pierce Biotechnology) using bovine serum albumin as a standard. Equal amounts of protein (20 μg per lane) were separated by electrophoresis on SDS-polyacrylamide gels at 90 V for 2 hours, then transferred from the SDS-polyacrylamide gel to PVDF membrane at 100 V for 1 hour. Then, primary reaction with GluN2B antibody (ab65783, Abcam) was performed at 4° C. for 1 day, washed three times at 10-minutes intervals with 1×PBT, and secondary reaction was performed with anti-mouse antibody (sc-2357, Santa Cruz) for 1 hour, followed by washing three times at 10-minutes intervals with 1×PBT. Western blotting was performed as described above to confirm GluN2B protein expression. Subsequently, each blot was re-probed using anti-β-actin antibody (sc-47778, Santa Cruz). Housekeeping protein B-actin was detected as a normalization control.
# The increase and decrease of BnH12 series were confirmed by setting the vehicle to 1 (N for each group was 3 or more).
# Using the experimental procedure described in Example 3, it was determined whether various BnH12 series compounds increase GluN2B expression, and the results are shown in Table 5. These in vitro experimental results are expressed as relative values to the group (vehicle) that was not treated with the compound, with the effect of the group set to 1.
SMILES,Cell viability test results (CCK) 10 uM (293T cells) [%<],Cell viability test results (CCK) 100 uM (293T cells) [%<],Western blot results Mean (GluN2B expression) (GluN2B),GluN2B expression effect (in words) (GluN2B)
"CCN(CC)c1ccc(-c2ccc(CC(=O)N3C[C@H](C(=O)O)CC[C@@H]3C)cc2)cc1 [BnH12090, (3R,6S)-1-(2-(4′-(diethylamino)-8 1,1′-biphenyl9-4-yl)acetyl)-6-methylpiperidine-3-carboxylic acid]",85,30,1.698,
"C[C@H]1CC[C@@H](C(=O)O)CN1C(=O)Cc1cccc(-c2ccncc2)c1 [BnH12091, (3R,6S)-6-methyl-1-(2-(3-(pyridin-4-yl)phenyl)acetyl) piperidine-3-carboxylic acid]",95,85,5.013,excellent effects
"COc1ccc(-c2cccc(CC(=O)N3C[C@H](C(=O)O)CC[C@@H]3C)c2)cn1 [BnH12092, (3R,6S)-1-(2-(3-(6-methoxypyridin-3-yl)phenyl)acetyl)-6-methylpiperidine-3-carboxylic acid]",90,75,3.524,excellent effects
"C[C@H]1CC[C@@H](C(=O)O)CN1C(=O)Cc1cccc(-c2ncc(F)cn2)c1 [BnH12093, (3R,6S)-1-(2-(3-(5-fluoropyrimidin-2-yl)phenyl)acetyl)-6-methylpiperidine-3-carboxylic acid]",85,80,1.611,
"C[C@H]1CC[C@@H](C(=O)O)CN1C(=O)Cc1cccc(-c2cncnc2)c1 [BnH12095, (3R,6S)-6-methyl-1-(2-(3-(pyrimidin-5-yl)phenyl)acetyl) piperidine-3-carboxylic acid]",80,75,2.871,excellent effects
